According to PMC3433420 (PLoS ONE, 2012):
Like-named read-outs stand apart in the source and are kept apart here. Non-standard residues stand in square brackets, D forms with d. No end group written: not given here. pY = N[C@@H](Cc1ccc(OP(=O)(O)O)cc1)C(=O)O

Tests used:
SH2 and PTB domains [1] = test: Sum of relative binding free energies (ΔΔG) from FP KDs, relative to 20 µM threshold; parameters: species or system human; unit not given here
Method: In order to further define and classify commonalities and differences among the ErbB family, the relative binding free energy (FE) of each SH2 domain was summed across all phosphosites on each receptor relative to the assay detection threshold of 20 µM according to Equation (3): [drawing 10] (3)

SH2 and PTB domains [2] = details: cited from earlier work
Source text: Supplement pone.0044471.s022.xlsx, sheet "Most recent PM interactions" | column: Kd || Supplement pone.0044471.s022.xlsx, sheet "All original PM interactions" | column: Kd

[3] = protein ABL2, ref Kaushansky et al. Chem and Biol 2008
[4] = protein ABL2, ref Jones et al. 2006 / Kaushansky et al. Mol Biosys 2008 / Kaushansky et al. Chem and Biol 2008

With ERBB3 (SEQG[pY]EEMRAFQD) the GO_SumDDG (SH2 and PTB domains [1]; GO group Adaptors) was 1.375, the GO_SumDDG (SH2 and PTB domains [1]; GO group Chromatin Remodeling) was 0 and the GO_SumDDG (SH2 and PTB domains [1]; GO group Cytoskeletal Regulation) was 3.549. The GO_SumDDG (SH2 and PTB domains [1]; GO group Kinases) was 3.776, the GO_SumDDG (SH2 and PTB domains [1]; GO group Phosphatases) was 2.349 and the GO_SumDDG (SH2 and PTB domains [1]; GO group Phosphatidyl Inositol Kinases) was 12.5484. It also gave a GO_SumDDG (SH2 and PTB domains [1]; GO group Phosphatidyl Inositol Phosphatases) of 1.508, a GO_SumDDG (SH2 and PTB domains [1]; GO group Phospholipases) of 8.299 and a GO_SumDDG (SH2 and PTB domains [1]; GO group RAS GEFs) of 3.469. The GO_SumDDG (SH2 and PTB domains [1]; GO group RAS GTPases) was 10.8637, the GO_SumDDG (SH2 and PTB domains [1]; GO group RHO GEFs) was 4.394 and the GO_SumDDG (SH2 and PTB domains [1]; GO group Scaffolds) was 3.618. It also gave a GO_SumDDG (SH2 and PTB domains [1]; GO group Signal Regulation) of 2.5932.

For “PPPApYTPMSGNQd [ErbB4 pY1056, N-terminally rhodamine-labeled 13-mer phosphopeptide]”, the Kd (SH2 and PTB domains [2]; [3]) is listed as 660 nM, the Kd (SH2 and PTB domains [2]; protein PIK3R1-N, ref Kaushansky et al. Chem and Biol 2008) is listed as 540 nM and the Kd (SH2 and PTB domains [2]; protein PIK3R1-NC, ref Kaushansky et al. Chem and Biol 2008) is listed as 1440 nM. For the same substance, the Kd (SH2 and PTB domains [2]; protein PIK3R2-N, ref Kaushansky et al. Chem and Biol 2008) was 200 nM, the Kd (SH2 and PTB domains [2]; protein PIK3R2-NC, ref Kaushansky et al. Chem and Biol 2008) was 460 nM and the Kd (SH2 and PTB domains [2]; protein PIK3R3-N, ref Kaushansky et al. Chem and Biol 2008) was 890 nM. For the same substance, the Kd (SH2 and PTB domains [2]; protein PIK3R3-NC, ref Kaushansky et al. Chem and Biol 2008) was 580 nM.

For “PSSGpYMPMNQGNd [ErbB3 pY1054, N-terminally rhodamine-labeled 13-mer phosphopeptide]”, the Kd (SH2 and PTB domains [2]; Protein ABL2, original PM interactions, ref Jones et al. 2006 / Kaushansky et al. Chem and Biol 2008) is given as 170 nM, the Kd (SH2 and PTB domains [2]; Protein ITK, original PM interactions, ref Jones et al. 2006 / Kaushansky et al. Chem and Biol 2008) is given as 1670 nM and the Kd (SH2 and PTB domains [2]; Protein PIK3R1-C, original PM interactions, ref Jones et al. 2006 / Kaushansky et al. Chem and Biol 2008) is given as 1000 nM. For the same substance, the Kd (SH2 and PTB domains [2]; Protein PIK3R1-N, original PM interactions, ref Jones et al. 2006 / Kaushansky et al. Chem and Biol 2008) was 570 nM, the Kd (SH2 and PTB domains [2]; Protein PIK3R1-NC, original PM interactions, ref Jones et al. 2006 / Kaushansky et al. Chem and Biol 2008) was 110 nM and the Kd (SH2 and PTB domains [2]; Protein PIK3R2-N, original PM interactions, ref Jones et al. 2006 / Kaushansky et al. Chem and Biol 2008) was 1000 nM. For the same substance, the Kd (SH2 and PTB domains [2]; Protein PIK3R2-NC, original PM interactions, ref Jones et al. 2006 / Kaushansky et al. Chem and Biol 2008) was 90 nM, the Kd (SH2 and PTB domains [2]; Protein PIK3R3-C, original PM interactions, ref Jones et al. 2006 / Kaushansky et al. Chem and Biol 2008) was 110 nM and the Kd (SH2 and PTB domains [2]; Protein PIK3R3-N, original PM interactions, ref Jones et al. 2006 / Kaushansky et al. Chem and Biol 2008) was 1000 nM. For the same substance, the Kd (SH2 and PTB domains [2]; Protein PIK3R3-NC, original PM interactions, ref Jones et al. 2006 / Kaushansky et al. Chem and Biol 2008) was 50 nM, the Kd (SH2 and PTB domains [2]; Protein SHB, original PM interactions, ref Jones et al. 2006 / Kaushansky et al. Chem and Biol 2008) was 1370 nM and the Kd (SH2 and PTB domains [2]; Protein SHC1-PTB, original PM interactions, ref Jones et al. 2006 / Kaushansky et al. Chem and Biol 2008) was 2000 nM. For the same substance, the Kd (SH2 and PTB domains [2]; Protein SHF, original PM interactions, ref Jones et al. 2006 / Kaushansky et al. Chem and Biol 2008) was 1230 nM and the Kd (SH2 and PTB domains [2]; Protein SYK-C, original PM interactions, ref Jones et al. 2006 / Kaushansky et al. Chem and Biol 2008) was 1180 nM.

For “QHPDpYLQEYSTKd [ErbB4 pY1258, N-terminally rhodamine-labeled 13-mer phosphopeptide]”, the Kd (SH2 and PTB domains [2]; protein ABL2, all original PM interactions, ref Jones et al. 2006 / Kaushansky et al. Chem and Biol 2008) is given as 880 nM, the Kd (SH2 and PTB domains [2]; protein PIK3R3-NC, all original PM interactions, ref Jones et al. 2006 / Kaushansky et al. Chem and Biol 2008) is given as 2000 nM and the Kd (SH2 and PTB domains [2]; protein PLCG1-C, all original PM interactions, ref Jones et al. 2006 / Kaushansky et al. Chem and Biol 2008) is given as 2000 nM. For the same substance, the Kd (SH2 and PTB domains [2]; protein PLCG1-NC, all original PM interactions, ref Jones et al. 2006 / Kaushansky et al. Chem and Biol 2008) was 2000 nM, the Kd (SH2 and PTB domains [2]; protein RASA1-N, all original PM interactions, ref Jones et al. 2006 / Kaushansky et al. Chem and Biol 2008) was 2000 nM and the Kd (SH2 and PTB domains [2]; protein SHC1-PTB, all original PM interactions, ref Jones et al. 2006 / Kaushansky et al. Chem and Biol 2008) was 2000 nM. For the same substance, the Kd (SH2 and PTB domains [2]; protein SLA, all original PM interactions, ref Jones et al. 2006 / Kaushansky et al. Chem and Biol 2008) was 2000 nM, the Kd (SH2 and PTB domains [2]; protein SYK-NC, all original PM interactions, ref Jones et al. 2006 / Kaushansky et al. Chem and Biol 2008) was 2000 nM and the Kd (SH2 and PTB domains [2]; protein VAV2, all original PM interactions, ref Jones et al. 2006 / Kaushansky et al. Chem and Biol 2008) was 2000 nM. For the same substance, the Kd (SH2 and PTB domains [2]; protein VAV2, ref Jones et al. 2006 / Kaushansky et al. Chem and Biol 2008) was 770 nM.

For “QNPVpYHNQPLNPd [ErbB1 pY1110, N-terminally rhodamine-labeled 13-mer phosphopeptide]”, the Kd (SH2 and PTB domains [2]; protein ABL1, ref Jones et al. 2006 / Kaushansky et al. Mol Biosys 2008 / Kaushansky et al. Chem and Biol 2008) is given as 520 nM, the Kd (SH2 and PTB domains [2]; [4]) is given as 60 nM and the Kd (SH2 and PTB domains [2]; protein GRB2, ref Jones et al. 2006 / Kaushansky et al. Mol Biosys 2008 / Kaushansky et al. Chem and Biol 2008) is given as 2000 nM. The Kd (SH2 and PTB domains [2]; protein NCK2, ref Jones et al. 2006 / Kaushansky et al. Mol Biosys 2008 / Kaushansky et al. Chem and Biol 2008) was 2000 nM and the Kd (SH2 and PTB domains [2]; protein SHC1-PTB, ref Jones et al. 2006 / Kaushansky et al. Mol Biosys 2008 / Kaushansky et al. Chem and Biol 2008) was 320 nM.

In the case of QSLLSPSSGpYMPMNQGN [ErbB3 1054], the Kd (SH2 and PTB domains [2]; Protein ABL2, most recent PM interactions, ref Jones et al. 2006 / Kaushansky et al. Chem and Biol 2008) is given as 330 nM, the Kd (SH2 and PTB domains [2]; Protein ITK, most recent PM interactions, ref Jones et al. 2006 / Kaushansky et al. Chem and Biol 2008) is given as 1670 nM and the Kd (SH2 and PTB domains [2]; Protein PIK3R1-C, most recent PM interactions, ref Jones et al. 2006 / Kaushansky et al. Chem and Biol 2008) is given as 1000 nM. The Kd (SH2 and PTB domains [2]; Protein PIK3R1-N, most recent PM interactions, ref Jones et al. 2006 / Kaushansky et al. Chem and Biol 2008) was 570 nM, the Kd (SH2 and PTB domains [2]; Protein PIK3R1-NC, most recent PM interactions, ref Jones et al. 2006 / Kaushansky et al. Chem and Biol 2008) was 920 nM and the Kd (SH2 and PTB domains [2]; Protein PIK3R2-N, most recent PM interactions, ref Jones et al. 2006 / Kaushansky et al. Chem and Biol 2008) was 890 nM. The Kd (SH2 and PTB domains [2]; Protein PIK3R2-NC, most recent PM interactions, ref Jones et al. 2006 / Kaushansky et al. Chem and Biol 2008) was 90 nM, the Kd (SH2 and PTB domains [2]; Protein PIK3R3-C, most recent PM interactions, ref Jones et al. 2006 / Kaushansky et al. Chem and Biol 2008) was 110 nM and the Kd (SH2 and PTB domains [2]; Protein PIK3R3-N, most recent PM interactions, ref Jones et al. 2006 / Kaushansky et al. Chem and Biol 2008) was 1320 nM. For the same substance, the Kd (SH2 and PTB domains [2]; Protein PIK3R3-NC, most recent PM interactions, ref Jones et al. 2006 / Kaushansky et al. Chem and Biol 2008) was 490 nM, the Kd (SH2 and PTB domains [2]; Protein SHB, most recent PM interactions, ref Jones et al. 2006 / Kaushansky et al. Chem and Biol 2008) was 1370 nM and the Kd (SH2 and PTB domains [2]; Protein SHF, most recent PM interactions, ref Jones et al. 2006 / Kaushansky et al. Chem and Biol 2008) was 1230 nM. The Kd (SH2 and PTB domains [2]; Protein SYK-C, most recent PM interactions, ref Jones et al. 2006 / Kaushansky et al. Chem and Biol 2008) was 1180 nM.

In the case of “RDPHpYQDPHSTAd [ErbB1 pY1125, N-terminally rhodamine-labeled 13-mer phosphopeptide]”, the Kd (SH2 and PTB domains [2]; [4]) is listed as 130 nM, the Kd (SH2 and PTB domains [2]; protein BMX, ref Jones et al. 2006 / Kaushansky et al. Mol Biosys 2008 / Kaushansky et al. Chem and Biol 2008) is listed as 1070 nM and the Kd (SH2 and PTB domains [2]; protein CRK, ref Jones et al. 2006 / Kaushansky et al. Mol Biosys 2008 / Kaushansky et al. Chem and Biol 2008) is listed as 1230 nM. The Kd (SH2 and PTB domains [2]; protein CRKL, ref Jones et al. 2006 / Kaushansky et al. Mol Biosys 2008 / Kaushansky et al. Chem and Biol 2008) was 2000 nM, the Kd (SH2 and PTB domains [2]; protein RASA1-N, ref Jones et al. 2006 / Kaushansky et al. Mol Biosys 2008 / Kaushansky et al. Chem and Biol 2008) was 1320 nM and the Kd (SH2 and PTB domains [2]; protein SHB, ref Jones et al. 2006 / Kaushansky et al. Mol Biosys 2008 / Kaushansky et al. Chem and Biol 2008) was 990 nM. For the same substance, the Kd (SH2 and PTB domains [2]; protein SYK-NC, ref Jones et al. 2006 / Kaushansky et al. Mol Biosys 2008 / Kaushansky et al. Chem and Biol 2008) was 980 nM, the Kd (SH2 and PTB domains [2]; protein TNS1, ref Jones et al. 2006 / Kaushansky et al. Mol Biosys 2008 / Kaushansky et al. Chem and Biol 2008) was 1280 nM and the Kd (SH2 and PTB domains [2]; protein YES1, ref Jones et al. 2006 / Kaushansky et al. Mol Biosys 2008 / Kaushansky et al. Chem and Biol 2008) was 380 nM.

In the case of “STQRpYSADPTVFd [ErbB4 pY1128, N-terminally rhodamine-labeled 13-mer phosphopeptide]”, the Kd (SH2 and PTB domains [2]; protein SRC, ref Kaushansky et al. Chem and Biol 2008) is given as 500 nM.

For THDPSPLQRpYSEDPTVPd [ErbB2 1112], the Kd (SH2 and PTB domains [2]; Protein BLK, most recent PM interactions, ref Kaushansky et al. Chem and Biol 2008) is given as 760 nM and the Kd (SH2 and PTB domains [2]; Protein PLCG2-NC, most recent PM interactions, ref Kaushansky et al. Chem and Biol 2008) is given as 1060 nM.

For “VSVPpYRAPTSTI [ErbB4 pY1081, N-terminally rhodamine-labeled 13-mer phosphopeptide]”, the Kd (SH2 and PTB domains [2]; [3]) is listed as 1230 nM and the Kd (SH2 and PTB domains [2]; protein CRKL, ref Kaushansky et al. Chem and Biol 2008) is listed as 1240 nM.
